The values below come from the NIST ThermoML archive (doi:10.1016/j.jct.2016.01.017).

± gives the expanded uncertainty stated by the source.

This series is described as follows: activity coefficient (dimensionless); of the first substance listed, at infinite dilution; xn = mol fraction of the nth substance listed. The note with it: 100 kPa, Liquid, Chromatography, x1 = 0.

Consider `CCOCC` [diethyl ether] + CCCC[n+]1ccc(C#N)cc1.O=S(=O)([N-]S(=O)(=O)C(F)(F)F)C(F)(F)F, for which the activity coefficient runs as follows: (308.15 K) 3.17 ± 0.27; (318.15 K) 3.24 ± 0.28; (328.15 K) 3.31 ± 0.29; (338.15 K) 3.37 ± 0.29; (348.15 K) 3.44 ± 0.3; (358.15 K) 3.5 ± 0.3. The activity coefficient (368.15 K) is 3.56 ± 0.31.

As for `CCCCO` [butan-1-ol] + CCCC[n+]1ccc(C#N)cc1.O=S(=O)([N-]S(=O)(=O)C(F)(F)F)C(F)(F)F, the activity coefficient (308.15 K) stood at 3.19 ± 0.28; the activity coefficient (318.15 K) came to 2.94 ± 0.25; the activity coefficient (328.15 K) turned out to be 2.74 ± 0.24; the activity coefficient (338.15 K) was 2.56 ± 0.22; the activity coefficient (348.15 K) worked out at 2.41 ± 0.21; the activity coefficient (358.15 K) turned out to be 2.28 ± 0.2. Further, where the note is “368.15 K”, the activity coefficient worked out at 2.15 ± 0.19.

`CCc1ccccc1` [ethylbenzene] + CCCC[n+]1ccc(C#N)cc1.O=S(=O)([N-]S(=O)(=O)C(F)(F)F)C(F)(F)F: the activity coefficient (308.15 K) is 2.49 ± 0.21; the activity coefficient (318.15 K) came to 2.58 ± 0.22; the activity coefficient (328.15 K) came to 2.67 ± 0.23; the activity coefficient (338.15 K) was found to be 2.77 ± 0.24; the activity coefficient (348.15 K) came out at 2.85 ± 0.25; the activity coefficient (358.15 K) is 2.93 ± 0.25. Besides, the activity coefficient (368.15 K) was 3.03 ± 0.26.

With `c1ccccc1` [benzene] + CCCC[n+]1ccc(C#N)cc1.O=S(=O)([N-]S(=O)(=O)C(F)(F)F)C(F)(F)F, the activity coefficient by setting is: (308.15 K) 1.07 ± 0.09; (318.15 K) 1.12 ± 0.09; (328.15 K) 1.17 ± 0.1; (338.15 K) 1.22 ± 0.1; (348.15 K) 1.28 ± 0.11; (358.15 K) 1.32 ± 0.11. Also, for the setting “368.15 K”, the activity coefficient turned out to be 1.38 ± 0.12.

As to `c1ccsc1` [thiophene] + CCCC[n+]1ccc(C#N)cc1.O=S(=O)([N-]S(=O)(=O)C(F)(F)F)C(F)(F)F, the activity coefficient was 0.916 ± 0.076 (308.15 K); 0.96 ± 0.08 (318.15 K); 1 ± 0.08 (328.15 K); 1.05 ± 0.09 (338.15 K); 1.1 ± 0.09 (348.15 K); 1.14 ± 0.09 (358.15 K). Moreover, where the note is “368.15 K”, the activity coefficient was 1.18 ± 0.1.

For `CC#N` [acetonitrile] + CCCC[n+]1ccc(C#N)cc1.O=S(=O)([N-]S(=O)(=O)C(F)(F)F)C(F)(F)F, the activity coefficient turned out to be 0.432 ± 0.042 (308.15 K); 0.449 ± 0.043 (318.15 K); 0.466 ± 0.044 (328.15 K); 0.483 ± 0.045 (338.15 K); 0.5 ± 0.046 (348.15 K); 0.516 ± 0.047 (358.15 K). The activity coefficient (368.15 K) came out at 0.531 ± 0.048.

On to `C=CCCCCCC` [oct-1-ene] + CCCC[n+]1ccc(C#N)cc1.O=S(=O)([N-]S(=O)(=O)C(F)(F)F)C(F)(F)F, for which the activity coefficient reads like this: (308.15 K) 31.7 ± 2.7; (318.15 K) 30.1 ± 2.6; (328.15 K) 28.6 ± 2.5; (338.15 K) 27.3 ± 2.4; (348.15 K) 26.3 ± 2.3; (358.15 K) 25.3 ± 2.2. Moreover, the activity coefficient (368.15 K) turned out to be 24.3 ± 2.1.

Turning to `CCCCC` [pentane] + CCCC[n+]1ccc(C#N)cc1.O=S(=O)([N-]S(=O)(=O)C(F)(F)F)C(F)(F)F, the activity coefficient is 26.7 ± 2.3 (308.15 K); 24.2 ± 2.1 (318.15 K); 22 ± 1.9 (328.15 K); 20.2 ± 1.7 (338.15 K); 18.6 ± 1.6 (348.15 K); 17.2 ± 1.5 (358.15 K). The activity coefficient (368.15 K) is 16 ± 1.4.

With `CC(C)CC(C)(C)C` [2,2,4-trimethylpentane] + CCCC[n+]1ccc(C#N)cc1.O=S(=O)([N-]S(=O)(=O)C(F)(F)F)C(F)(F)F, the activity coefficient amounted to 46.5 ± 4 (308.15 K); 42.9 ± 3.7 (318.15 K); 39.8 ± 3.4 (328.15 K); 37 ± 3.2 (338.15 K); 34.7 ± 3 (348.15 K); 32.5 ± 2.8 (358.15 K). Further, for the setting “368.15 K”, the activity coefficient was found to be 30.7 ± 2.7.
